Measurements as given in patent US20200131196A1 (Mount Tam Therapeutics, Inc., priority 2017, published 2020).

How the values were obtained:
CAMA-1 = test: OncoPanel cell proliferation assay, CAMA-1
Procedure: (§6) Cells were seeded into 384-well plates and incubated in a humidified atmosphere of 5% CO2 at 37° C. Compounds were added the day following cell seeding. At the same time, a time zero untreated cell plate was generated. After a 3-day incubation period, cells were fixed and stained to allow fluorescence imaging of nuclei. Compounds (1 mM stock solutions) were serially diluted in half-log steps from the highest test concentration (1 micromol), and assayed over 10 concentrations with a maximum assay concentration of 0.1% DMSO. Automated fluorescence microscopy was carried out using a Molecular Devices ImageXpress Micro XL high-content imager, and images were collected with a 4× objective. 16-bit TIFF images were acquired and analyzed with MetaXpress 5.1.0.41 software.

SNU-5 = test: OncoPanel cell proliferation assay, SNU-5; assay type: cell-based, human
Procedure: (§1) Cells were seeded into 384-well plates and incubated in a humidified atmosphere of 5% CO2 at 37° C. Compounds were added the day following cell seeding. At the same time, a time zero untreated cell plate was generated. After a 3-day incubation period, cells were fixed and stained to allow fluorescence imaging of nuclei. Compounds (1 mM stock solutions) were serially diluted in half-log steps from the highest test concentration ([…]), and assayed over 10 concentrations with a maximum assay concentration of 0.1% DMSO. Automated fluorescence microscopy was carried out using a Molecular Devices ImageXpress Micro XL high-content imager, and images were collected with a 4× objective. 16-bit TIFF images were acquired and analyzed with MetaXpress 5.1.0.41 software.
(§2) Cell proliferation was measured by the fluorescence intensity of an incorporated nuclear dye. The output is referred to as the relative cell count, where the measured nuclear intensity is transformed to percent of control (POC) using the following formula: […]
(§3) Cellular response parameters were calculated using nonlinear regression to a sigmoidal single-site dose response model:
(§4) GI50 is the concentration needed to reduce the observed growth by half (midway between the curve maximum and the time zero value). […] In rare instances, values <0 or >10 may be observed. […] Curve-fitting, calculations, and report generation was performed using a custom data reduction engine and MathIQ based software (AIM).

U-87 MG = test: OncoPanel cell proliferation assay, U-87 MG; assay type: cell-based, human
Procedure: as §1, with “Cells were grown in RPMI 1640, 10% FBS, 2 mM L-alanyl-L-glutamine, 1 mM Na pyruvate, or a special medium. Cells” for “Cells”
as §2, §3
(§5) EC50 is the test compound concentration at the curve inflection point or half the effective response (parameter C of the fitted curve solution). GI50 is the concentration needed to reduce the observed growth by half (midway between the curve maximum and the time zero value). “Cell Count Activity Area” is an estimate of the integrated area above the curve (Barretina, et al. The Cancer Cell Line Encyclopedia enables predictive modelling of anticancer drug sensitivity. Nature 483: 603-607). […] In rare instances, values <0 or >10 may be observed. […] Curve-fitting, calculations, and report generation was performed using a custom data reduction engine and MathIQ based software (AIM).

RKOE6 = test: OncoPanel cell proliferation assay, RKOE6
Procedure: as §6

U2OS = test: OncoPanel cell proliferation assay, U2OS; assay type: cell-based, human
Procedure: as §1, §2, §3, §4

RL95-2 = test: OncoPanel cell proliferation assay, RL95-2; assay type: cell-based, human
Procedure: as §1, with “Cells were grown in RPMI 1640, 10% FBS, 2 mM L-alanyl-L-glutamine, 1 mM Na pyruvate, or a special medium. Cells” for “Cells”
as §2, §3, §5

[1] = Homo sapiens, read-out: Cell Count EC50
[2] = Homo sapiens, read-out: Cell Count GI50
[3] = Homo sapiens, read-out: Cell Count IC50

## CO[C@H]1C[C@@H]2CC[C@@H](C)[C@@](O)(O2)C(=O)C(=O)N2CCCC[C@H]2C(=O)O[C@H]([C@H](C)C[C@H]2C[C@H]3C[C@@H]2C[C@@H]3O)CC(=O)[C@H](C)/C=C(\C)[C@@H](O)[C@@H](OC)C(=O)[C@H](C)C[C@H](C)/C=C/C=C/C=C/1C [Formula II, C37-[(1R,2S,4R,5S)-5-hyhroxybicyclo[2.2.1]heptane] rapamycin]
CAMA-1; CAMA-1
  Cell Count Activity Area: 4.22
CAMA-1; CAMA-1, 1.00E+00 microM
  Relative cell count (%) Mean: 42.0%
CAMA-1; CAMA-1, 1.00E-01 microM
  Relative cell count (%) Mean: 45.4%
CAMA-1; CAMA-1, 1.00E-02 microM
  Relative cell count (%) Mean: 54.6%
CAMA-1; CAMA-1, 1.00E-03 microM
  Relative cell count (%) Mean: 64.5%
CAMA-1; CAMA-1, 1.01E-04 microM
  Relative cell count (%) Mean: 98.0%
CAMA-1; CAMA-1, 3.16E-01 microM
  Relative cell count (%) Mean: 43.0%
CAMA-1; CAMA-1, 3.17E-02 microM
  Relative cell count (%) Mean: 45.1%
CAMA-1; CAMA-1, 3.17E-03 microM
  Relative cell count (%) Mean: 55.9%
CAMA-1; CAMA-1, 3.18E-04 microM
  Relative cell count (%) Mean: 79.7%
CAMA-1; CAMA-1, 3.18E-05 microM
  Relative cell count (%) Mean: 96.5%
CAMA-1; Homo sapiens, CAMA-1, read-out: Cell Count EC50
  EC50: 0.491 nM
CAMA-1; Homo sapiens, CAMA-1, read-out: Cell Count GI50
  GI50: 0.647 nM
CAMA-1; Homo sapiens, CAMA-1, read-out: Cell Count IC50
  IC50: 4.34 nM
SNU-5
  Cell Count Activity Area: 1.85
SNU-5; 1.00E+00 microM
  Relative cell count (%) Mean: 67.1%
SNU-5; 1.00E-01 microM
  Relative cell count (%) Mean: 71.9%
SNU-5; 1.00E-02 microM
  Relative cell count (%) Mean: 82.9%
SNU-5; 1.00E-03 microM
  Relative cell count (%) Mean: 95.6%
SNU-5; 1.01E-04 microM
  Relative cell count (%) Mean: 101.2%
SNU-5; 3.16E-01 microM
  Relative cell count (%) Mean: 70.4%
SNU-5; 3.17E-02 microM
  Relative cell count (%) Mean: 76.3%
SNU-5; 3.17E-03 microM
  Relative cell count (%) Mean: 84.9%
SNU-5; 3.18E-04 microM
  Relative cell count (%) Mean: 95.6%
SNU-5; 3.18E-05 microM
  Relative cell count (%) Mean: 101.0%
SNU-5; [1]
  EC50: 5.57 nM
SNU-5; [2]
  GI50: 168 nM
SNU-5; [3]
  IC50: > 1000 nM
U-87 MG
  Cell Count Activity Area: 3.76
U-87 MG; 1.00E+00 microM
  Relative cell count (%) Mean: 48.9%
U-87 MG; 1.00E-01 microM
  Relative cell count (%) Mean: 52.1%
U-87 MG; 1.00E-02 microM
  Relative cell count (%) Mean: 70.4%
U-87 MG; 1.00E-03 microM
  Relative cell count (%) Mean: 78.8%
U-87 MG; 1.01E-04 microM
  Relative cell count (%) Mean: 101.1%
U-87 MG; 3.16E-01 microM
  Relative cell count (%) Mean: 50.7%
U-87 MG; 3.17E-02 microM
  Relative cell count (%) Mean: 60.4%
U-87 MG; 3.17E-03 microM
  Relative cell count (%) Mean: 71.4%
U-87 MG; 3.18E-04 microM
  Relative cell count (%) Mean: 85.3%
U-87 MG; 3.18E-05 microM
  Relative cell count (%) Mean: 108.2%
U-87 MG; [1]
  EC50: 0.996 nM
U-87 MG; [2]
  GI50: 2.17 nM
U-87 MG; [3]
  IC50: 34.1 nM
RKOE6; Homo sapiens, RKOE6, read-out: Cell Count EC50
  EC50: 1.13 nM
RKOE6; Homo sapiens, RKOE6, read-out: Cell Count GI50
  GI50: 5.57 nM
RKOE6; Homo sapiens, RKOE6, read-out: Cell Count IC50
  IC50: 14.2 nM
RKOE6; RKOE6
  Cell Count Activity Area: 3.66
RKOE6; RKOE6, 1.00E+00 microM
  Relative cell count (%) Mean: 40.1%
RKOE6; RKOE6, 1.00E-01 microM
  Relative cell count (%) Mean: 43.1%
RKOE6; RKOE6, 1.00E-02 microM
  Relative cell count (%) Mean: 52.2%
RKOE6; RKOE6, 1.00E-03 microM
  Relative cell count (%) Mean: 64.1%
RKOE6; RKOE6, 1.01E-04 microM
  Relative cell count (%) Mean: 94.2%
RKOE6; RKOE6, 3.16E-01 microM
  Relative cell count (%) Mean: 43.1%
RKOE6; RKOE6, 3.17E-02 microM
  Relative cell count (%) Mean: 49.1%
RKOE6; RKOE6, 3.17E-03 microM
  Relative cell count (%) Mean: 65.3%
RKOE6; RKOE6, 3.18E-04 microM
  Relative cell count (%) Mean: 84.4%
RKOE6; RKOE6, 3.18E-05 microM
  Relative cell count (%) Mean: 98.6%
U2OS
  Cell Count Activity Area: 2.61
U2OS; 1.00E+00 microM
  Relative cell count (%) Mean: 49.8%
U2OS; 1.00E-01 microM
  Relative cell count (%) Mean: 51.6%
U2OS; 1.00E-02 microM
  Relative cell count (%) Mean: 66.4%
U2OS; 1.00E-03 microM
  Relative cell count (%) Mean: 78.8%
U2OS; 1.01E-04 microM
  Relative cell count (%) Mean: 98.9%
U2OS; 3.16E-01 microM
  Relative cell count (%) Mean: 47.3%
U2OS; 3.17E-02 microM
  Relative cell count (%) Mean: 56.3%
U2OS; 3.17E-03 microM
  Relative cell count (%) Mean: 81.3%
U2OS; 3.18E-04 microM
  Relative cell count (%) Mean: 98.6%
U2OS; 3.18E-05 microM
  Relative cell count (%) Mean: 92.7%
U2OS; [1]
  EC50: 5.4 nM
U2OS; [2]
  GI50: 35 nM
U2OS; [3]
  IC50: 324 nM
RL95-2
  Cell Count Activity Area: 3.36
RL95-2; 1.00E+00 microM
  Relative cell count (%) Mean: 48.1%
RL95-2; 1.00E-01 microM
  Relative cell count (%) Mean: 51.9%
RL95-2; 1.00E-02 microM
  Relative cell count (%) Mean: 61.8%
RL95-2; 1.00E-03 microM
  Relative cell count (%) Mean: 69.2%
RL95-2; 1.01E-04 microM
  Relative cell count (%) Mean: 91.3%
RL95-2; 3.16E-01 microM
  Relative cell count (%) Mean: 51.5%
RL95-2; 3.17E-02 microM
  Relative cell count (%) Mean: 53.8%
RL95-2; 3.17E-03 microM
  Relative cell count (%) Mean: 62.6%
RL95-2; 3.18E-04 microM
  Relative cell count (%) Mean: 78.8%
RL95-2; 3.18E-05 microM
  Relative cell count (%) Mean: 95.1%
RL95-2; [1]
  EC50: 0.645 nM
RL95-2; [2]
  GI50: 1.18 nM
RL95-2; [3]
  IC50: > 1000 nM
